In assay [1] the test system is Streptococcus pneumoniae ATCC 49169. The assay is described as follows: Antibacterial activity, broth microdilution MIC. The conditions noted are these: for MIC: Streptococcus pneumoniae, ATCC49169, broth microdilution, 37° C., 24 hours, working range 0.098-50 μg/mL (Gram-positive); for antibacterial effect compared with tylosin against Streptococcus pneumoniae ATCC 49169: in vitro, comparison in words with positive control tylosin. Format: cell-based. The method, then: (§1) Test Example 1 Determination of the antibacterial activity of the compounds of the present invention The antibacterial activity of the compounds obtained in Examples 1-4 of the present invention were determined by using the broth microdilution method with tylosin as a positive control. A broth culture medium was added into a 96-well plate, a prepared compound solution was diluted two-fold serial dilution, and then inoculated with an appropriate amount of bacterial solution. After incubation for 24 hours, the minimum inhibitory concentration of the compound was observed. The culture medium used in the experiment was CAMHB broth, CAMHB+5% defibrillated sheep blood broth. The preserved bacteria strain was inoculated into a serum-supplemented medium and cultured at 37° C. for 16-18 hours. An appropriate amount of bacteria after the completion of subculture and saline were placed into a turbidimetric tube and calibrated to the McFarland standard with a McFarland turbidimeter. The bacterial suspension was diluted 10 times with saline to prepare test bacterial solutions of certain concentrations (5×10^5 to 5×10^6 cfu/mL) for later use. Tylosin and the compounds obtained in the examples were dissolved in methanol to the desired concentration of each compound (1.0 mg/mL), stored in sterilized brown vials, stoppered, and sealed for later use. The working concentration range against Gram-negative bacteria was 0.25 μg/mL to 128 μg/mL; and the working concentration range against Gram-positive bacteria was 0.098 μg/mL to 50 μg/mL. The 96-well plate micro double dilution method was used. […] Finally, the prepared bacterial solution (of a concentration of 5×10^5 to 5×10^6 cfu/mL) was added into the first well to the eleventh well, and the twelfth well was not added with the bacterial solution to serve as a blank control. The 96-well plate was placed in a 37° C. incubator, cultured in a static state for 24 hours to observe the bacterial growth in each well. The solution in the well that inhibited bacterial growth was transparent, and the solution in the well that could not inhibit bacterial growth was turbid. The concentration in the well with a transparent solution was selected to be the minimum inhibitory concentration (MIC) of the sample.

Assay [2] relates to Escherichia coli ATCC 8099. The assay is described as follows: Antibacterial activity, broth microdilution MIC. The assay is classed as cell-based. The conditions noted are these: for MIC: Escherichia coli, ATCC8099, broth microdilution, 37° C., 24 hours, working range 0.25-128 μg/mL (Gram-negative); for antibacterial effect compared with tylosin against Escherichia coli 8099: in vitro, comparison in words with positive control tylosin. Here is the method: as §1
For orientation: Broth dilution looks for growth in wells or tubes with falling amounts of substance.

Converted amounts (≈) assume the structure as drawn.

The term MIC denotes the smallest concentration in the dilution series that meets the test's criterion for growth inhibition. The low end stands for inhibition by little substance, the high end for a need for much substance.

As to `CC[C@H]1OC(=O)C[C@@H](O)[C@H](C)[C@@H](O[C@@H]2O[C@H](C)[C@@H](O[C@H]3C[C@@](C)(O)[C@@H](O)[C@H](C)O3)[C@H](N(C)C)[C@H]2O)[C@@H](CCNCCCO)C[C@@H](C)C(=O)/C=C/C(C)=C/[C@@H]1CO[C@@H]1O[C@H](C)[C@@H](O)[C@@H](OC)[C@H]1OC` [Ia, 20-(3-hydroxypropylamino) tylosin], in assay [1], the MIC is 0.391 µg/mL (≈ 0.401 µM) and the “antibacterial effect compared with tylosin against Streptococcus pneumoniae ATCC 49169” value is recorded as “slightly better antibacterial effect than tylosin”. For the same molecule, in assay [2], it took 128 µg/mL (≈ 131 µM) to inhibit growth (MIC) and the “antibacterial effect compared with tylosin against Escherichia coli 8099” value is on record as “comparable antibacterial effect to tylosin”.

For the molecule `CC[C@H]1OC(=O)C[C@@H](O)[C@H](C)[C@@H](O[C@@H]2O[C@H](C)[C@@H](O[C@H]3C[C@@](C)(O)[C@@H](O)[C@H](C)O3)[C@H](N(C)C)[C@H]2O)[C@@H](CCN(CCO)CCO)C[C@@H](C)C(=O)/C=C/C(C)=C/[C@@H]1CO[C@@H]1O[C@H](C)[C@@H](O)[C@@H](OC)[C@H]1OC` [Ib, 20-(bis(2-hydroxyethylamino)) tylosin], the MIC stood at 0.781 µg/mL (≈ 0.777 µM) in assay [1] and 128 µg/mL (≈ 127 µM) in assay [2].

Regarding `CC[C@H]1OC(=O)C[C@@H](O)[C@H](C)[C@@H](O[C@@H]2O[C@H](C)[C@@H](O[C@H]3C[C@@](C)(O)[C@@H](O)[C@H](C)O3)[C@H](N(C)C)[C@H]2O)[C@@H](CCN2CCC[C@@H]2CO)C[C@@H](C)C(=O)/C=C/C(C)=C/[C@@H]1CO[C@@H]1O[C@H](C)[C@@H](O)[C@@H](OC)[C@H]1OC` [Ic, 20-((R)-2-hydroxymethyltetrahydropyrrolyl) tylosin], in assay [1], 0.195 µg/mL (≈ 0.195 µM) was the least that counted as inhibitory (MIC) and the “antibacterial effect compared with tylosin against Streptococcus pneumoniae ATCC 49169” value is “superior antibacterial effect to tylosin”. Also, in assay [2], the minimum inhibitory concentration (MIC) is 64 µg/mL (≈ 63.9 µM) and the “antibacterial effect compared with tylosin against Escherichia coli 8099” value is given as “superior antibacterial effect to tylosin”.

Regarding `CC[C@H]1OC(=O)C[C@@H](O)[C@H](C)[C@@H](O[C@@H]2O[C@H](C)[C@@H](O[C@H]3C[C@@](C)(O)[C@@H](O)[C@H](C)O3)[C@H](N(C)C)[C@H]2O)[C@@H](CCN2CCC[C@H]2CO)C[C@@H](C)C(=O)/C=C/C(C)=C/[C@@H]1CO[C@@H]1O[C@H](C)[C@@H](O)[C@@H](OC)[C@H]1OC` [Id, 20-((S)-2-hydroxymethyltetrahydropyrrolyl) tylosin], the MIC in assay [1] worked out at 0.781 µg/mL (≈ 0.78 µM); in assay [2], 128 µg/mL (≈ 128 µM).

In the case of `CC[C@H]1OC(=O)C[C@@H](O)[C@H](C)[C@@H](O[C@@H]2O[C@H](C)[C@@H](O[C@H]3C[C@@](C)(O)[C@@H](O)[C@H](C)O3)[C@H](N(C)C)[C@H]2O)[C@@H](CC=O)C[C@@H](C)C(=O)/C=C/C(C)=C/[C@@H]1CO[C@@H]1O[C@H](C)[C@@H](O)[C@@H](OC)[C@H]1OC` [Tylosin, reference compound], the minimal inhibitory concentration (MIC) was determined as 0.781 µg/mL (≈ 0.853 µM) in assay [1] and 128 µg/mL (≈ 140 µM) in assay [2].

Values taken from patent publication US20260108549A1, “MACROLIDE COMPOUND AND PREPARATION METHOD AND APPLICATION THEREOF” (INSTITUTE OF FEED RESEARCH, CHINESE ACADEMY OF AGRICULTURAL …, priority 2023, published 2026).
